# Laboratory results taken from paper PMC12670405, “Second-Generation AURKA-Targeting PROTACs: Structural Optimization toward in Vivo Degradation in Neuroblastoma” (Journal of Medicinal Chemistry, 2025).
# Where two headings read alike, the source gives them in different places.
# Key:
# [1] = test system: RPE; test: IncuCyte live-cell imaging, antiproliferative effect; format: cell-based
# [2] = biological target: T1, AURKA (Homo sapiens, UniProt O14965); test: In vivo pharmacodynamics study, IMR-32 cell line-derived xenograft, Western blot; design: from tissue; host or cells: IMR-32 cell line-derived xenograft tumours, BALB/c nude mice; species or system BALB/c nude mice; settings: for AURKA protein reduction in tumor (in words): single IP dose 15 mg/kg; for AURKA protein levels in tumor (in words): single IV dose 15 mg/kg
# T1 sequence (O14965 1-403): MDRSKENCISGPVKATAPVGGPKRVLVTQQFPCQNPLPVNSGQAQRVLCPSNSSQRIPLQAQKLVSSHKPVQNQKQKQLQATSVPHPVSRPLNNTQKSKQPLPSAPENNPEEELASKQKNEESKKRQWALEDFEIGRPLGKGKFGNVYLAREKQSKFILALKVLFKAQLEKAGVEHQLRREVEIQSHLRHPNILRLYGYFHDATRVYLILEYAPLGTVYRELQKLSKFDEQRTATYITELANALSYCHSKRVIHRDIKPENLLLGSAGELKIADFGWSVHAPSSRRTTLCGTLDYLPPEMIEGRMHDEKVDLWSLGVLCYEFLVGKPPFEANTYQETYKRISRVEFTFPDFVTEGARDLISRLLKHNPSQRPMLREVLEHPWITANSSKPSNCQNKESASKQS
# Description: Protein lysates were denatured through addition of Laemmli buffer supplemented with β-mercaptoethanol (Sigma-Aldrich, #M6250) heated at 95 °C for 10 min. […] The ladder used was the PageRuler Prestained Protein Ladder (Thermo Fisher Scientific, #26617). Afterward, proteins were blotted on nitrocellulose membranes (Bio-Rad, #162-0233) by running at 100 V for 1 h with a buffer containing 10% 10× Tris/glycine (Bio-Rad, #161-0771) and 20% methanol (Thermo Fisher Scientific, #0390D). Ponceau staining was used for confirmation of protein transfer. Membranes were blocked in 5% milk/TBST or 5% BSA/TBST for 1 h at room temperature and subsequently incubated with primary antibodies overnight at 4 °C. Blots were washed 3× for 5 min each with TBST prior to incubation with secondary antibodies for 1 h at room temperature. Visualization of the blots was done using WestDura or WestFemto (Thermo Fisher Scientific, #34096, #34076) with the Amersham Imager 680 (BIOKÉ). Blots were stripped using the Restore Stripping Buffer (Thermo Fisher Scientific, #21059) prior to detection of additional proteins. Images were compiled and quantified using Sciugo (https://sciugo.com/). Per lane, quantified data were always normalized to that of the loading control (Vinculin or GAPDH), prior to calculating fold changes. Mean fold changes are calculated from 3 individual experiments. A list of the primary and secondary antibodies used can be found in the Supporting Information (Supplementary Table S7).
# Both the in vivo pharmacokinetics and in vivo pharmacodynamics studies were performed by Eurofins Pharmacology Discovery Services. All mice were provided by BioLasco Taiwan (under Charles River Laboratories Licensee). Animals were acclimated for 3 days prior to use and were confirmed to be in good health. All aspects of this work including housing, experimentation, and animal disposal were performed in general accordance with the “Guide for the Care and Use of Laboratory Animals: Eighth Edition” (National Academies Press, Washington, DC. 2011) in a AAALAC-accredited laboratory animal facility. In addition, the animal care and use protocol was reviewed and approved by the IACUC at Eurofins Pharmacology Discovery Services; IN020-08202020 and ON002-07142023.
# Six-week old female BALB/c nude mice were subcutaneously implanted with viable IMR-32 cells formulated in 50% Matrigel into the right flank (1 × 10^7 cells/mouse, in 0.2 mL volume). Palpable tumor volumes were measured with a caliper and calculated according to the prolate ellipsoid formula: tumor volume = length × width^2 × 0.5. When the mean tumor volume reached ∼250 mm^3, animals were randomized into groups (0, 4, 8, 24 h) with 3 animals per group. […] Other groups were given a single IV or IP administration of SK5527 or SK4454 at 15 mg/kg (dissolved in 5% DMSO/5% Solutol HS15/90% PBS). Tumors were subsequently harvested at the respective time points, snap-frozen in liquid nitrogen, and kept frozen at −70 °C until further processing. Upon receipt of the samples in our lab, we mechanically digested and lysed tumor pieces by adding cold RIPA lysis buffer (with protease and phosphatase inhibitors as previously described) and Stainless Steel Beads (Qiagen, #69989) followed by shaking for 2 min (twice) using TissueLyser II (Qiagen). Afterward, samples were centrifuged for 20 min (10,000 rpm, 4 °C). The supernatant was then collected and the concentration of the obtained protein lysates was measured using the Pierce BCA Protein Assay Kit (Thermo Fisher Scientific, #23227). Western blot was performed as previously described to visualize changes in AURKA protein levels.
Compound,"GI50 ([1]; 72 h, read-out: Cell GI50 72h)",AURKA protein reduction in tumor (in words) [2],AURKA protein levels in tumor (in words) ([2]; 4 and 8 h post-treatment),AURKA protein levels in tumor (in words) ([2]; 24 h),"GI50 ([1]; 72h, read-out: GI50)"
Cc1cc(Nc2ccc(F)c(CC3(C(=O)N4CCC(CN5CCN(c6ccc(N7CCC(=O)NC7=O)cn6)CC5)CC4)CCN(Cc4cccc(Cl)c4F)CC3)n2)n[nH]1 [SK4454],0.221 µM,not observed,strongly reduced AURKA protein levels,return to baseline levels,–
Cc1cc(Nc2ccc(F)c(CC3(C(=O)N4CCC(F)(CN5CCN(c6ccc(N7CCC(=O)NC7=O)cn6)CC5)CC4)CCN(Cc4cccc(Cl)c4F)CC3)n2)n[nH]1 [SK5527],0.46 µM,not observed,strongly reduced AURKA protein levels,return to baseline levels,~0.5 µM
